We go through 42 compounds from ChEMBL document CHEMBL2029294, “Evaluation of endo- and exo-aryl-substitutions and central scaffold modifications on diphenyl substituted alkanes as 5-lipoxygenase activating protein inhibitors” (Bioorg Med Chem Lett, 2012).

Data set [1] addresses T1, Arachidonate 5-lipoxygenase-activating protein (Homo sapiens, UniProt P20292).
T1 sequence (P20292 whole entry): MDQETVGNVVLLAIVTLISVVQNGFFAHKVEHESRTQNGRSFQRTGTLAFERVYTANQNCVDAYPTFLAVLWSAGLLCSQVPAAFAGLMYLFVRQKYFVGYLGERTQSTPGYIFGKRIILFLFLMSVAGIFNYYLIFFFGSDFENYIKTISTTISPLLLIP
Kind of data set: Displacement of [125I]L-691,831 from 5-lipoxygenase-activating protein in human polymorphonuclear cells. (Loss of bound radioactivity is the signal in a displacement assay; it reports binding, not function.)

In data set [2] the target is T1, Arachidonate 5-lipoxygenase-activating protein. Put plainly: Inhibition of 5-lipoxygenase-activating protein in human polymorphonuclear cells assessed as inhibition of calcium ionophore-induced LTB4 production in presence of human whole blood. The format is tissue-based.
The nature of data set [3]: Clearance in Sprague-Dawley rat at 1 mg/kg, iv and 2 mg/kg, po. The note with it: in vivo. Format: ADME, organism-based.
Data set [4] can be described thus: Volume of distribution in Sprague-Dawley rat at 1 mg/kg, iv and 2 mg/kg, po. The note with it: in vivo. Format: ADME, organism-based.
For data set [5], the system named is Rattus norvegicus. Put plainly: Dose normalised AUC in Sprague-Dawley rat at 1 mg/kg, iv. Format: ADME, organism-based. Also noted: dose 1 mg/kg, route intravenous. The note with it: in vivo.
Data set [6] in a line: Cmax in Sprague-Dawley rat at 1 mg/kg, iv and 2 mg/kg, po. The format is ADME, organism-based. The note with it: in vivo.
A short description of data set [7]: Half life in Sprague-Dawley rat at 1 mg/kg, iv and 2 mg/kg, po. The format is ADME, organism-based. The following applies: in vivo.
Data set [8] can be described thus: Oral bioavailability in Sprague-Dawley rat at 2 mg/kg. Format: ADME, organism-based. The following applies: in vivo.

Turning to `O=C(c1ccc(OCc2ccc3ccccc3n2)cc1[C@]1(c2ccccc2)C[C@H]2CC[C@H]1C2)N1CCCC1` (racemic), the IC50 in data set [1] is 0.0071 µM; in data set [2] it was 1.73 µM.
On the same counts, the results for `COC(=O)c1ccc(OCc2ccc3ccccc3n2)cc1[C@]1(c2ccc(F)cc2)C[C@H]2CC[C@H]1C2` (racemic) are 0.0095 µM and 1.4 µM.
For the compound `COC(=O)c1ccc(OCc2ccc3ccccc3n2)cc1C1(c2ccccc2)C2CCC1CC2` (centres undefined), the IC50 in data set [1] turned out to be 0.0056 µM; in data set [2], 1.3 µM.
In the case of `COC(=O)c1ccc(OCc2ccc3ccccc3n2)cc1C(CC(C)(C)C)c1ccccc1` (racemic), the IC50 is 0.003 µM in data set [1] and 2 µM in data set [2].
The corresponding values for `Cc1nc(-c2ccc(OCc3ccc4ccccc4n3)cc2[C@]2(c3ccccc3)C[C@H]3CC[C@H]2C3)no1` (racemic) are 0.0016 µM and 0.189 µM.
As for `CC1(C)CC(c2ccccc2)(c2cc(OCc3ccc4ccccc4n3)ccc2-c2n[nH]c(=O)o2)C1`, the IC50 worked out at 0.0036 µM in data set [1] and 0.834 µM in data set [2]. The clearance in data set [3] was found to be 4.26 L/h/kg. The compound also displayed a Vd in data set [4] of 7.5 L/kg. In addition, the AUC/dose in data set [5] amounted to 0.05 µM·kg·h/mg. Besides, the peak level in data set [6] (Cmax) was 0.01 µM. The half-life in data set [7] is 1.7 h. The same compound registered a bioavailability in data set [8] of 9%.
Regarding `COC(=O)c1ccc(OCc2ccc3ccccc3n2)cc1[C@]1(c2cccc(C)c2)C[C@H]2CC[C@H]1C2` (racemic), the IC50 in data set [1] was 0.0055 µM; in data set [2] it was 0.94 µM.
Regarding `COC(=O)c1ccc(OCc2ccc3ccccc3n2)cc1C(c1ccccc1)C1CCCCC1` (racemic), the IC50 in data set [1] is 0.016 µM; in data set [2] it was over 9 µM.
For the compound `c1ccc([C@@]2(c3cc(OCc4ccc5ccccc5n4)ccc3-c3ncon3)C[C@H]3CC[C@H]2C3)cc1` (racemic), the IC50 worked out at 0.0054 µM in data set [1] and 0.721 µM in data set [2].
With `COC(=O)c1ccc(OCc2ccc3ccccc3n2)cc1C1(c2ccccc2)CC(C)(C)C1`, the IC50 was found to be 0.0052 µM in data set [1] and 1.4 µM in data set [2].
Consider `O=C(Nc1cccnc1)c1ccc(OCc2ccc3ccccc3n2)cc1[C@]1(c2ccccc2)C[C@H]2CC[C@H]1C2` (racemic), for which the IC50 in data set [1] is 0.0058 µM; in data set [2] it was 2.16 µM.
On to `CCC(CC)(c1ccccc1)c1cc(OCc2ccc3ccccc3n2)ccc1C(=O)OC`, for which the results for the IC50 in data set [1] and in data set [2] were 0.096 µM and over 9 µM, respectively.
In the case of `S=c1[nH]nc(-c2ccc(OCc3ccc4ccccc4n3)cc2[C@]2(c3ccccc3)C[C@H]3CC[C@H]2C3)o1` (racemic), the IC50 is 0.0011 µM in data set [1] and 0.753 µM in data set [2].
As for `COc1cccc([C@]2(c3cc(OCc4ccc5ccccc5n4)ccc3-c3n[nH]c(=O)o3)C[C@H]3CC[C@H]2C3)c1`, the IC50 amounted to 0.0011 µM in data set [1] and 0.375 µM in data set [2]. In data set [3], the clearance was found to be 0.432 L/h/kg. The same compound showed a Vd in data set [4] of 0.7 L/kg. Also, in data set [5], the AUC/dose worked out at 0.79 µM·kg·h/mg. The same compound showed a Cmax in data set [6] of 0.67 µM. Further, the half-life in data set [7] is 1.2 h. Besides, the bioavailability in data set [8] was 17%.
With `CC(C)(C)[C@@H](c1ccccc1)c1cc(OCc2ccc3ccccc3n2)ccc1-c1n[nH]c(=O)o1`, the IC50 is 0.0019 µM in data set [1] and 0.534 µM in data set [2]. Moreover, the clearance in data set [3] was 1.74 L/h/kg. Further, the Vd in data set [4] worked out at 5.3 L/kg. Moreover, in data set [5], the AUC/dose was 0.34 µM·kg·h/mg. The compound further gave a Cmax in data set [6] of 0.25 µM. Moreover, in data set [7], the half-life was 4.3 h. In data set [8], this compound yielded a bioavailability of 27%.
`COC(=O)c1ccc(OCc2ccc3ccccc3n2)cc1[C@]1(c2ccccc2)C[C@H]2CC[C@H]1C2` (racemic): the results for the IC50 in data set [1] and in data set [2] were 0.0021 µM and 0.46 µM, respectively.
As to `COC(=O)c1ccc(OCc2ccc3ccccc3n2)cc1[C@]1(c2cccc(C(F)(F)F)c2)C[C@H]2CC[C@H]1C2` (racemic), the IC50 in data set [1] is 0.0074 µM; in data set [2], over 8.6 µM.
On the same counts, the results for `Cc1noc(-c2ccc(OCc3ccc4ccccc4n3)cc2[C@]2(c3ccccc3)C[C@H]3CC[C@H]2C3)n1` (racemic) are 0.0063 µM and 1.02 µM.
For the compound `COC(=O)c1ccc(OCc2ccc3ccccc3n2)cc1C1(c2ccccc2)CCC1`, the IC50 in data set [1] was 0.02 µM; in data set [2] it was over 7 µM.
On the same counts, the results for `COC(=O)c1ccc(OCc2ccc3ccccc3n2)cc1C1(c2ccccc2)CCCCC1` are 0.015 µM and 1.56 µM.
Turning to `c1ccc([C@@]2(c3cc(OCc4ccc5ccccc5n4)ccc3-c3nnco3)C[C@H]3CC[C@H]2C3)cc1` (racemic), the IC50 was determined as 0.0029 µM in data set [1] and 0.376 µM in data set [2].
For `COC(=O)c1ccc(OCc2ccc3ccccc3n2)cc1C1(c2ccccc2)CC(F)(F)C1`, the IC50 in data set [1] is 0.05 µM; in data set [2], over 9 µM.
On the same counts, the results for `CCn1nnc(-c2ccc(OCc3ccc4ccccc4n3)cc2[C@]2(c3ccccc3)C[C@H]3CC[C@H]2C3)n1` (racemic) are 0.0024 µM and 0.177 µM.
Turning to `CC1CC(c2ccccc2)(c2cc(OCc3ccc4ccccc4n3)ccc2-c2n[nH]c(=O)o2)C1` (mixture of isomers), the IC50 in data set [1] worked out at 0.0026 µM; in data set [2], 0.695 µM. In data set [3], this compound came in with a clearance of 1.92 L/h/kg. This compound also gave a Vd in data set [4] of 3.1 L/kg. This compound gave an AUC/dose in data set [5] of 0.19 µM·kg·h/mg. Further, the peak level in data set [6] (Cmax) was 0.12 µM. Besides, the half-life in data set [7] was 2 h. The compound further had a bioavailability in data set [8] of 17%.
`Cc1nnc(-c2ccc(OCc3ccc4ccccc4n3)cc2[C@]2(c3ccccc3)C[C@H]3CC[C@H]2C3)o1` (racemic): the IC50 in data set [1] was 0.005 µM; in data set [2] it was 0.456 µM.
For `COC(=O)c1ccc(OCc2ccc3ccccc3n2)cc1C1(c2ccccc2)CC(C)C1` (centres undefined), the IC50 in data set [1] stood at 0.0032 µM; in data set [2], 1.1 µM.
With `COC(=O)c1ccc(OCc2ccc3ccccc3n2)cc1[C@]1(c2ccccc2F)C[C@H]2CC[C@H]1C2` (racemic), the figures for the IC50 in data set [1] and in data set [2] were 0.004 µM and 1.6 µM, respectively.
Consider `COC(=O)c1ccc(OCc2ccc3ccccc3n2)cc1[C@]1(c2cc(C)cc(C)c2)C[C@H]2CC[C@H]1C2` (racemic), for which the IC50 in data set [1] was 0.0035 µM; in data set [2] it was 2.3 µM.
As to `FC(F)n1nnc(-c2ccc(OCc3ccc4ccccc4n3)cc2[C@]2(c3ccccc3)C[C@H]3CC[C@H]2C3)n1` (racemic), the IC50 in data set [1] is 0.0024 µM; in data set [2] it was 0.502 µM.
As for `COC(=O)c1ccc(OCc2ccc3ccccc3n2)cc1[C@]1(c2cccc(F)c2)C[C@H]2CC[C@H]1C2` (racemic), the results for the half-inhibitory concentration (IC50) in data set [1] and in data set [2] were 0.0023 µM and 0.472 µM, respectively.
The corresponding values for `COC(=O)c1ccc(OCc2ccc3ccccc3n2)cc1C(c1ccccc1)C(C)(C)C` (racemic) are 0.0055 µM and 0.67 µM.
`Nc1nnc(-c2ccc(OCc3ccc4ccccc4n3)cc2[C@]2(c3ccccc3)C[C@H]3CC[C@H]2C3)o1` (racemic): the IC50 in data set [1] is 0.0022 µM; in data set [2], 0.258 µM.
Turning to `O=C(NC1CCCC1)c1ccc(OCc2ccc3ccccc3n2)cc1[C@]1(c2ccccc2)C[C@H]2CC[C@H]1C2` (racemic), the IC50 in data set [1] was 0.048 µM; in data set [2], 0.964 µM.
On to `O=c1[nH]nc(-c2ccc(OCc3ccc4ccccc4n3)cc2[C@]2(c3ccccc3)C[C@H]3CC[C@H]2C3)o1` (racemic), for which the IC50 in data set [1] is 0.0025 µM; in data set [2], 0.796 µM.
On the same counts, the results for `COC(=O)c1ccc(OCc2ccc3ccccc3n2)cc1[C@]1(c2cc(F)cc(F)c2)C[C@H]2CC[C@H]1C2` (racemic) are 0.0034 µM and 1.32 µM.
As to `CC(C)n1nnc(-c2ccc(OCc3ccc4ccccc4n3)cc2[C@]2(c3ccccc3)C[C@H]3CC[C@H]2C3)n1` (racemic), the IC50 in data set [1] amounted to 0.0017 µM; in data set [2] it was 0.149 µM.
`c1ccc([C@@]2(c3cc(OCc4ccc5ccccc5n4)ccc3-c3nnn[nH]3)C[C@H]3CC[C@H]2C3)cc1` (racemic): the IC50 is 0.0029 µM in data set [1] and 5.72 µM in data set [2].
Take `COC(=O)c1ccc(OCc2ccc3ccccc3n2)cc1[C@]1(c2cccc(OC)c2)C[C@H]2CC[C@H]1C2` (racemic): the IC50 in data set [1] amounted to 0.0025 µM; in data set [2], 0.322 µM.
Consider `O=c1[nH]nc(-c2ccc(OCc3ccc4ccccc4n3)cc2[C@@]2(c3ccccc3)C[C@H]3CC[C@H]2C3)o1`, for which the IC50 was 0.0008 µM in data set [1] and 0.469 µM in data set [2]. This compound came in with a clearance in data set [3] of 0.438 L/h/kg. Also, in data set [4], the Vd was determined as 1 L/kg. Further, the AUC/dose in data set [5] amounted to 0.58 µM·kg·h/mg. The concentration in data set [6] peaked (Cmax) at 0.4 µM. In addition, in data set [7], the half-life is 1 h. In addition, the bioavailability in data set [8] is 12%.
As to `COC(=O)c1ccc(OCc2ccc3ccccc3n2)cc1C1(c2ccccc2)CCCC1`, the values for the IC50 in data set [1] and in data set [2] were 0.0085 µM and 3.7 µM, respectively.
On to `Cn1nnc(-c2ccc(OCc3ccc4ccccc4n3)cc2[C@]2(c3ccccc3)C[C@H]3CC[C@H]2C3)n1` (racemic), for which the results for the IC50 in data set [1] and in data set [2] were 0.0028 µM and 0.313 µM, respectively.
For the compound `COC(=O)c1ccc(OCc2ccc3ccccc3n2)cc1C(C)(C)c1ccccc1`, the values for the IC50 in data set [1] and in data set [2] were 0.058 µM and over 9 µM, respectively.

By IC50 is commonly meant the concentration needed to halve the response being measured. Usually Cmax stands for the maximum level reached in the sampled fluid or tissue. The term half-life denotes how long it takes for the measured level to halve. By bioavailability is commonly meant dose-corrected exposure relative to a reference, in per cent.
